From patent US9790229B2, “Bruton's tyrosine kinase inhibitors” (priority 2009, dated 2017) come the findings set out here.

The target of one experiment is BTK (Homo sapiens (Human), UniProt Q06187). Briefly: In vitro BTK kinase assay: BTK-POLYGAT-LS ASSAY.
Chain of BTK (Q06187 whole entry): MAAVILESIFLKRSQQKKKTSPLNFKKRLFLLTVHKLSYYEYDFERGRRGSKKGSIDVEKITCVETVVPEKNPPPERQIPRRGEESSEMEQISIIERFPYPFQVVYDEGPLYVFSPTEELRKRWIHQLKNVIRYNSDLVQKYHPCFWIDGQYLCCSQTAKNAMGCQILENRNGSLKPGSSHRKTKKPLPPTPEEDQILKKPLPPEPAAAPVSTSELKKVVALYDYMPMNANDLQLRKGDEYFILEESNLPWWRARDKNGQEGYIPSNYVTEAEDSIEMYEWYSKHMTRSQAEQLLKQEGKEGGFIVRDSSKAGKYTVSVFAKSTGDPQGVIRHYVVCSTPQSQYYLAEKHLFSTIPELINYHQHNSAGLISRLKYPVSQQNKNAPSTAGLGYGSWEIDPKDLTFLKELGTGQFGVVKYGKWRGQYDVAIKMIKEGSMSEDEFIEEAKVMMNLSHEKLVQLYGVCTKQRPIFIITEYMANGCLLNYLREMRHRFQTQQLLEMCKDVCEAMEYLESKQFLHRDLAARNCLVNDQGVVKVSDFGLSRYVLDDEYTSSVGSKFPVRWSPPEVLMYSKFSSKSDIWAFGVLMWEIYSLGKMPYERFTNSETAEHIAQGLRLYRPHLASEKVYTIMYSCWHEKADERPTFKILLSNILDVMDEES
Conditions: not given
The IC50 is the concentration at which inhibition is half-maximal. `O=C(Nc1cccc(C2CCCN(c3ncnc4[nH]ccc34)C2)c1)Nc1ccccc1N1CCCCC1` (centres unmarked) [compound 175]: the 50% inhibitory concentration (IC50) was in the range of 100 to 999 nM. Turning to `O=C(Nc1cccc(C2CCCN(c3ncnc4[nH]ccc34)C2)c1)c1ccc(Cl)cc1` (centres unmarked) [Cmpd 3, N-(3-(1-(7H-pyrrolo[2,3-d]pyrimidin-4-yl)piperidin-3-yl)phenyl)-4-chlorobenzamide], the half-inhibitory concentration (IC50) is 1000 to 10000 nM. Turning to `C[C@@H]1CCCN1c1ccccc1NC(=O)Nc1cccc(C2CCCN(c3ncnc4[nH]ccc34)C2)c1` (some centres unmarked) [compound 159], the IC50 was 100 to 999 nM. In turn, `C[C@@H](NC(=O)Nc1cccc(C2CCCN(c3ncnc4[nH]ccc34)C2)c1)c1ccccc1` (stereo partly drawn) [Cmpd 43, 1-(3-(1-(7H-pyrrolo[2,3-d]pyrimidin-4-yl)piperidin-3-yl)phenyl)-3-((R)-1-phenylethyl)urea] displayed an IC50 of 1000 to 10000 nM. In the case of `O=C(Nc1cccc(C2CCCN(c3ncnc4[nH]ccc34)C2)c1)Nc1ccccn1` (centres unmarked) [Cmpd 29, 1-(3-(1-(7H-pyrrolo[2,3-d]pyrimidin-4-yl)piperidin-3-yl)phenyl)-3-(pyridin-2-yl)urea], the IC50 is 1000 to 10000 nM. Take `Nc1cc(N2CCCC(c3cccc(NC(=O)Nc4ccccc4)c3)C2)ncn1` (centres unmarked) [Cmpd 94, 1-(3-(1-(6-aminopyrimidin-4-yl)piperidin-3-yl)phenyl)-3-phenylurea]: the 50% inhibitory concentration (IC50) lay in the range of 1000 to 10000 nM. In turn, `CCOC(=O)c1cccc(NC2CCCN([C@@H]3CCCN(c4ncnc(N)c4F)C3)C2=O)c1` (stereo partly drawn) [compound 296, Ethyl 3-((3′R)-1′-(6-amino-5-fluoropyrimidin-4-yl)-2-oxo-1,3′-bipiperidin-3-ylamino) benzoate] came in with an IC50 of 1000 to 10000 nM. In the case of `O=C(Nc1cccc(C2CN(c3ncnc4[nH]ccc34)CCC2CO)c1)Nc1ccccc1N1CCCC1` (centres unmarked) [compound 163], the IC50 lay in the range of 100 to 999 nM. In turn, `O=C(Nc1ccccc1)Nc1cccc(C2CN(c3ncnc4[nH]ccc34)CCN2)c1` (centres unmarked) [compound 125, 1-(3-(4-(7H-pyrrolo[2,3-N]pyrimidin-4-yl)piperazin-2-yl)phenyl)-3-phenylurea] registered an IC50 of 1000 to 10000 nM.

`O=C(Nc1cccc(C2CCCN(c3ncnc4[nH]ccc34)C2)c1)Nc1cccnc1F` (centres unmarked) [compound 197] had an IC50 of 1000 to 10000 nM.

For `O=C(Nc1ccccc1)Nc1cccc(C2CCN(c3ncnc4[nH]ccc34)C2)c1` (centres unmarked) [Cmpd 28, 1-(3-(1-(7H-pyrrolo[2,3-d]pyrimidin-4-yl)pyrrolidin-3-yl)phenyl)-3-phenylurea], the IC50 lay within 1000 to 10000 nM.

`Nc1ncnc(N2CC[C@H](C(F)(F)F)[C@@H](N3CCC[C@H](Nc4cc(Cl)cc(Cl)c4)C3=O)C2)c1F` [compound 338, trans (3S)-1′-(6-amino-5-fluoropyrimidin-4-yl)-3-(3,5-dichlorophenylamino)-4′-(trifluoromethyl)-1,3′-bipiperidin-2-one] gave a 50% inhibitory concentration (IC50) of 1000 to 10000 nM.

Consider `N[C@@H]1CCN(c2ccccc2NC(=O)Nc2cccc(C3CCCN(c4ncnc5[nH]ccc45)C3)c2)C1` (some centres unmarked) [compound 164], for which the IC50 was 100 to 999 nM. `O=C1[C@H](Nc2ccccc2)CCN1[C@@H]1CCCN(c2ncnc3[nH]ccc23)C1` [compound 273] had an IC50 of 100 to 999 nM.

As to `O=C(Nc1cccc(C2CCCN(c3ncnc4[nH]ccc34)C2)c1)Nc1ccccc1N1CCCC1=O` (centres unmarked) [compound 170], the half-inhibitory concentration (IC50) fell in the range of 100 to 999 nM.

As for `Nc1ncnc(N2CCCC(c3cccc(NC(=O)Nc4ccccc4)c3)C2)c1Br` (centres unmarked) [Cmpd 101, 1-(3-(1-(6-Amino-5-bromopyrimidin-4-yl)piperidin-3-yl)phenyl)-3-phenylurea], the half-maximal inhibitory concentration (IC50) is 1000 to 10000 nM.

Turning to `O=C(Nc1cccc(C2CN(c3ncnc4[nH]ccc34)CCN2CCO)c1)Nc1c(Cl)cccc1Cl` (centres unmarked) [compound 134, 1-(2,6-Dichlorophenyl)-3-(3-(1-(2-hydroxyethyl)-4-(7H-pyrrolo[2,3-d]pyrimidin-4-yl)piperazin-2-yl)phenyl)urea], the IC50 lay in the range of 100 to 999 nM.

For the compound `O=C1[C@@H](Nc2ccccc2)CCN1[C@@H]1CCCN(c2ncnc3[nH]ccc23)C1` [compound 272], the IC50 fell in the range of 1000 to 10000 nM.

The experiment is the same for the next values; noted with them: read-out: IC50 (10 uM ATP); 10 uM ATP; in vitro Btk kinase assay, Example 41.
Turning to `O=C(NCC1CCNCC1)Nc1cccc(C2CCCN(c3ncnc4[nH]ccc34)C2)c1` (centres unmarked) [compound 231], the 50% inhibitory concentration (IC50) is greater than 10000 nM. In the case of `O=C1C(Nc2ccccc2S(=O)(=O)N2CCCCC2)CCCN1[C@@H]1CCCN(c2ncnc3[nH]ccc23)C1` (stereo partly drawn) [compound 318, (3′R)-3-(2-(Piperidin-1-ylsulfonyl)phenylamino)-1′-(7H-pyrrolo[2,3-d]pyrimidin-4-yl)-1,3′-bipiperidin-2-one], the half-maximal inhibitory concentration (IC50) is less than 100 nM.

For the compound `Nc1ncnc(N2CC[C@H](O)[C@@H](N3CCCC(Nc4cc(F)cc(Cl)c4)C3=O)C2)c1F` (stereo partly drawn) [compound 324, trans-1′-(6-Amino-5-fluoropyrimidin-4-yl)-3-(3-chloro-5-fluorophenylamino)-4′-hydroxy-1,3′-bipiperidin-2-one], the IC50 is less than 100 nM. For `Nc1ncnc(N2CCC[C@@H](N3CCC[C@@H](Nc4cc(Cl)cc(Cl)c4)C3=O)C2)c1F` [compound 315, (3R,3′R)-1′-(6-Amino-5-fluoropyrimidin-4-yl)-3-(3,5-dichlorophenylamino)-1,3′-bipiperidin-2-one], the half-maximal inhibitory concentration (IC50) was less than 100 nM. On to `O=C(Nc1cccc(C2CCCN(c3ncnc4[nH]ccc34)C2)c1)Nc1c(F)cccc1N1CCCC1` (centres unmarked) [compound 146], for which the IC50 was less than 100 nM. Consider `Nc1ncnc(N2C[C@@H](O)C[C@@H](N3CCCC(Nc4cc(Cl)cc(Cl)c4)C3=O)C2)c1F` (stereo partly drawn) [compound 283, (3′R,5′S)-1′-(6-Amino-5-fluoropyrimidin-4-yl)-3-(3,5-dichlorophenylamino)-5′-hydroxy-1,3′-bipiperidin-2-one], for which the half-maximal inhibitory concentration (IC50) is less than 100 nM. Turning to `N[C@H](C(=O)Nc1cccc(C2CCCN(c3ncnc4[nH]ccc34)C2)c1)c1ccccc1` (stereo partly drawn) [Cmpd 20, (2S)—N-(3-(1-(7H-pyrrolo[2,3-d]pyrimidin-4-yl)piperidin-3-yl)phenyl)-2-amino-2-phenylacetamide], the half-inhibitory concentration (IC50) is greater than 10000 nM. Consider `Cc1ccc(C2CCCN(c3ncnc4[nH]ccc34)C2)cc1NC(=O)c1ccccc1` (centres unmarked) [Cmpd 82, N-(5-(1-(7H-pyrrolo[2,3-d]pyrimidin-4-yl)piperidin-3-yl)-2-methylphenyl)benzamide], for which the IC50 is greater than 10000 nM. On the same count and under the same terms, to `O=C1C(Nc2cc(Cl)cc(Cl)c2)CCCN1[C@H]1CN(c2ncnc3[nH]ccc23)CC[C@@H]1C(F)(F)F` (stereo partly drawn) [compound 339, trans-3-(3,5-Dichlorophenylamino)-1′-(7H-pyrrolo[2,3-d]pyrimidin-4-yl)-4′-(trifluoromethyl)-1,3′-bipiperidin-2-one] belongs less than 100 nM.

Turning to `CC(=O)Nc1cc(N2CCCC(c3cccc(NC(=O)Nc4ccccc4)c3)C2)ncn1` (centres unmarked) [Cmpd 92, N-(6-(3-(3-(3-phenylureido)phenyl)piperidin-1-yl)pyrimidin-4-yl)acetamide], the concentration for half-maximal inhibition (IC50) was greater than 10000 nM. Take `O=C(Nc1csc(C2CCCN(c3ncnc4[nH]ncc34)C2)n1)Nc1ccccc1N1CCCC1` (centres unmarked) [compound 110, 1-(2-(1-(1H-pyrazolo[3,4-d]pyrimidin-4-yl)piperidin-3-yl)thiazol-4-yl)-3-(2-(pyrrolidin-1-yl)phenyl)urea]: the IC50 is less than 100 nM. Same read-out and setting: the value for `O=C(NCCC1CCCCC1)Nc1cccc(C2CCCN(c3ncnc4[nH]ccc34)C2)c1` (centres unmarked) [compound 259] was greater than 10000 nM.

In the case of `O=C(Nc1csc(C2CCCN(c3ncnc4[nH]ccc34)C2)n1)Nc1ccccc1N1CCCC1` (centres unmarked) [compound 107, 1-(2-(1-(7H-pyrrolo[2,3-d]pyrimidin-4-yl)piperidin-3-yl)thiazol-4-yl)-3-(2-(pyrrolidin-1-yl)phenyl)urea], the IC50 was less than 100 nM. The same measure, in the same setting: to `CN1CCCC(CNC(=O)Nc2cccc(C3CCCN(c4ncnc5[nH]ccc45)C3)c2)C1` (centres unmarked) [compound 225] belongs greater than 10000 nM. With `Cc1ccc(C2CCCN(c3ncnc4[nH]ccc34)C2)cc1NC(=O)Nc1ccccc1` (centres unmarked) [Cmpd 81, 1-(5-(1-(7H-pyrrolo[2,3-d]pyrimidin-4-yl)piperidin-3-yl)-2-methylphenyl)-3-phenylurea], the concentration for half-maximal inhibition (IC50) was greater than 10000 nM. Consider `Cc1cc(NC(=O)Nc2cccc(C3CCCN(c4ncnc5[nH]ccc45)C3)c2)c(C(F)(F)F)o1` (centres unmarked) [compound 236], for which the IC50 is greater than 10000 nM. On to `O=C(Nc1ccccc1)N[C@H]1CCCN(C2CCCN(c3ncnc4[nH]ccc34)C2)C1` (some centres unmarked) [compound 237], for which the IC50 was greater than 10000 nM.
